Reference: the supplement of paper PMC10307832

Assays:
Assay in all cases: relative viability (nuclei count vs DMSO), 5 days (fraction); higher = more cells survive
Lapatinib + Pictilisib = compound: CS(=O)(=O)CCNCc1ccc(-c2ccc3ncnc(Nc4ccc(OCc5cccc(F)c5)c(Cl)c4)c3c2)o1 [Lapatinib] + CS(=O)(=O)N1CCN(Cc2cc3nc(-c4cccc5[nH]ncc45)nc(N4CCOCC4)c3s2)CC1 [Pictilisib] (partner 1 µM)
Outline: (§1)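 Dosing by pin tool came one day after lung cancer cell lines were seeded in 1536-well plates, using either one drug or a fixed anchor-drug dose plus five library-drug doses (not always all listed) in √10 steps. After 5 days, nuclei were counted on 4× images. Relative viability is treated-well nuclei count divided by vehicle-well nuclei count, and values are medians of duplicate plates.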

Wnt-C59 + Olaparib = compound: CC1=NC=CC(=C1)C2=CC=C(C=C2)CC(=O)NC3=CC=C(C=C3)C4=CN=CC=C4 [Wnt-C59] + O=C(c1cc(Cc2n[nH]c(=O)c3ccccc23)ccc1F)N1CCN(C(=O)C2CC2)CC1 [Olaparib] (partner 8 µM)
Outline: as §1

Lapatinib + Foretinib = compound: CS(=O)(=O)CCNCc1ccc(-c2ccc3ncnc(Nc4ccc(OCc5cccc(F)c5)c(Cl)c4)c3c2)o1 [Lapatinib] + COc1cc2c(Oc3ccc(NC(=O)C4(C(=O)Nc5ccc(F)cc5)CC4)cc3F)ccnc2cc1OCCCN1CCOCC1 [Foretinib] (partner 0.25 µM)
Outline: as §1

Lapatinib + Alpelisib = compound: CS(=O)(=O)CCNCc1ccc(-c2ccc3ncnc(Nc4ccc(OCc5cccc(F)c5)c(Cl)c4)c3c2)o1 [Lapatinib] + Cc1nc(NC(=O)N2CCC[C@H]2C(N)=O)sc1-c1ccnc(C(C)(C)C(F)(F)F)c1 [Alpelisib] (partner 2 µM)
Outline: as §1

| Cell Line | relative viability (Lapatinib + Pictilisib; first compound 0.02 µM) | relative viability (Lapatinib + Pictilisib; first compound 0.06325 µM) | relative viability (Lapatinib + Pictilisib; first compound 0.2 µM) | relative viability (Lapatinib + Pictilisib; first compound 0.6325 µM) | relative viability (Lapatinib + Pictilisib; first compound 2 µM) | relative viability (Wnt-C59 + Olaparib; first compound 0.001 µM) | relative viability (Wnt-C59 + Olaparib; first compound 0.01 µM) | relative viability (Wnt-C59 + Olaparib; first compound 0.03162 µM) | relative viability (Wnt-C59 + Olaparib; first compound 0.1 µM) | relative viability (Lapatinib + Foretinib; first compound 0.02 µM) | relative viability (Lapatinib + Foretinib; first compound 0.2 µM) | relative viability (Lapatinib + Foretinib; first compound 0.6325 µM) | relative viability (Lapatinib + Foretinib; first compound 2 µM) | relative viability (Lapatinib + Alpelisib; first compound 0.02 µM) | relative viability (Lapatinib + Alpelisib; first compound 0.06325 µM) | relative viability (Lapatinib + Alpelisib; first compound 0.2 µM) | relative viability (Lapatinib + Alpelisib; first compound 0.6325 µM) | relative viability (Lapatinib + Alpelisib; first compound 2 µM) | relative viability (Lapatinib + Foretinib; first compound 0.06325 µM) |
| --- | --- | --- | --- | --- | --- | --- | --- | --- | --- | --- | --- | --- | --- | --- | --- | --- | --- | --- | --- |
| 201T | 0.603 | 0.656 | 0.675 | 0.659 | 0.638 | 0.845 | 0.884 | 0.841 | 0.867 | 1.18 | 1.03 | 1.03 | 0.76 | 0.998 | 0.834 | 0.993 | 1 | 0.943 | – |
| A549 | 0.477 | 0.401 | 0.468 | 0.456 | 0.506 | 0.302 | 0.321 | 0.357 | 0.332 | 0.952 | 1.04 | 0.918 | 0.877 | 0.609 | 0.528 | 0.755 | 0.665 | 0.516 | 0.872 |
| A-427 | – | 0.602 | 0.854 | 0.765 | 0.665 | 0.767 | 0.79 | 0.751 | 0.789 | – | 1.1 | 1.08 | 0.859 | – | 1.04 | 1.1 | 1.07 | 1.04 | 0.905 |
| ABC-1 | – | 0.655 | 1.09 | 0.93 | 0.696 | 1 | 0.898 | 0.502 | 0.846 | 0.949 | 1.16 | 1.32 | 0.964 | – | 1.06 | 1.23 | 0.88 | 0.838 | 0.912 |
| BEN | 0.412 | 0.577 | 0.53 | 0.519 | 0.505 | 1.32 | 1.04 | 1.27 | 0.94 | – | 0.653 | 0.763 | 0.554 | 0.961 | 0.904 | 1.19 | 0.909 | 0.853 | 0.667 |
| CAL-12T | – | 0.415 | 0.31 | 0.528 | 0.351 | 0.727 | 0.689 | 0.674 | 0.783 | – | 1.03 | 1.02 | 0.954 | 1.05 | 1.26 | 1.25 | 1.13 | 0.417 | 1.12 |
| COR-L23 | 0.681 | 0.583 | 0.984 | 0.92 | 0.733 | 0.295 | 0.309 | 0.362 | 0.32 | 0.949 | 0.918 | 0.971 | 0.891 | 0.694 | 0.602 | 0.871 | 0.752 | 0.688 | 0.872 |
| COR-L 105 | 0.33 | 0.329 | 0.35 | 0.419 | 0.307 | 0.708 | 0.727 | 0.684 | 0.656 | 0.987 | 0.689 | 0.491 | 0.582 | 0.872 | 0.765 | 1.03 | 0.804 | 0.294 | 0.928 |
| Calu-6 | 0.865 | 0.838 | 0.958 | 1.08 | 0.978 | 0.572 | 0.576 | 0.698 | 0.614 | 0.86 | 0.862 | 0.878 | 0.904 | 0.919 | 0.93 | 1.06 | 1.01 | 0.894 | 0.852 |
| ChaGo-K-1 | – | 0.861 | 0.598 | 0.599 | 0.32 | 0.419 | 0.417 | 0.462 | 0.435 | 0.907 | 0.879 | 0.951 | 0.835 | – | – | – | – | – | 0.936 |
| EBC-1 | 0.467 | 0.368 | 0.364 | 0.386 | 0.256 | 0.742 | 0.75 | 0.681 | 0.635 | 0.113 | 0.0867 | 0.108 | 0.0963 | 0.826 | 0.766 | 0.889 | 0.801 | 0.695 | 0.0941 |
| HCC-44 | 0.606 | 1.03 | 0.66 | 0.654 | 0.421 | 0.981 | 1.02 | 0.965 | 0.92 | – | – | – | – | 0.689 | 0.621 | 0.75 | 0.873 | 0.535 | – |
| NCI-H522 | – | – | – | – | – | 0.694 | 0.74 | 0.565 | 0.581 | – | – | – | – | – | – | – | – | – | – |
| NCI-H1563 | 0.592 | 0.643 | 0.6 | 0.725 | 0.693 | – | – | – | – | 0.861 | 0.953 | 0.831 | 0.857 | 0.951 | 0.848 | 0.795 | 0.961 | 0.898 | 0.881 |
| NCI-H1623 | – | – | – | – | – | – | – | – | – | 0.702 | 0.634 | 0.785 | 0.277 | – | – | – | – | – | 0.637 |
| NCI-H1648 | – | – | – | – | – | 1.13 | 0.76 | 1.3 | 0.679 | – | – | – | – | – | – | – | – | – | – |
| NCI-H1650 | 0.253 | 0.415 | 0.672 | 0.663 | 0.503 | 0.78 | 0.817 | 0.802 | 0.684 | 1 | 1.03 | 1.01 | 0.684 | – | – | – | – | – | 1.08 |
| NCI-H1792 | 0.292 | 0.236 | 0.294 | 0.302 | 0.123 | 0.487 | 0.48 | 0.525 | 0.385 | – | – | – | – | 0.723 | 0.633 | 0.75 | 0.666 | 0.576 | – |
| NCI-H2342 | – | – | – | – | – | 0.792 | 0.489 | 0.446 | 0.396 | 1.09 | 0.946 | 0.975 | 0.712 | – | – | – | – | – | 1.01 |
| SW 900 | – | – | – | – | – | 0.887 | 0.814 | 0.987 | 0.987 | – | 0.659 | 0.781 | 0.734 | – | – | – | – | – | 0.808 |
